Experimental data taken from patent US20210024567A1, “MODIFIED CYCLIC DINUCLEOTIDE COMPOUNDS” (BOEHRINGER INGELHEIM INTERNATIONAL GMBH, priority 2018, published 2021).

Assays:
[1] = target: T1, human STING protein in THP1-Blue ISG cells (Homo sapiens, UniProt Q86WV6, G230A/H232R/R293Q/R71H); test: In vitro cytokine induction, THP1-Blue ISG reporter cell assay (IRF-inducible SEAP); assay type: cell-based; conditions: 24 hours incubation, SEAP OD at 620 nm
T1 construct: endogenous STING levels form the parental, unmodified THP1-Blue ISG cell lines; endogenous in cells; host or cells: THP1-Blue ISG cells
Description: Activation of the STING protein expressed in THP1 cells results in an increase of interferon production. By the stable integration of an interferon regulatory factor (IRF)-inducible SEAP (secreted embryonic alkaline phosphatase) reporter construct the functional interferon signaling pathway can be monitored. Using Invivogen's QUANTI-Blue™ colorimetric enzyme assay and a suitable optical density (OD) reader the activity of SEAP can be detected and quantified. This technique could be used to characterize pharmacological modification of the STING protein.
Measurements of SEAP activity were performed in THP1-Blue ISG cells stably expressing the human STING protein and the IRF-inducible SEAP reporter construct. Cells were cultivated for expansion in RPMI1640 medium with 10% fetal calf serum, 50 μg/ml Penicillin-Streptomycin, 100 μg/ml Zeocin, and 100 μg/ml Normocin in a 37°, 95% humidity and 5% CO2 incubator. Assay-ready cells were stored as frozen stocks.
In preparation for the assay, the cells were thawed in Zeocin-/Normocin-free medium and were distributed into the assay plates with a density of 15000 cells/15 μL per well. […]
At the day of the assay, 75 μl per well of Quanti-Blue reagent was added to all wells of the plate and the plate was incubated another 30 minutes at 37° C. The OD at 620 nm was measured on the EnVision reader (PerkinElmer). […]

hSTING HAQ = target: T2, hSTING HAQ (Homo sapiens, UniProt Q86WV6, G230A/H232R/R293Q/R71H); test: THP1-Blue ISG hSTING KO reporter cells re-expressing hSTING HAQ; assay type: cell-based; conditions: HAQ variant cell line
T2 construct: expressed in transfected cells; host or cells: THP1-Blue ISG hSTING KO clone, retroviral MSCV-ires-GFP-Blasti
Description: (§1) Several single nucleotide polymorphisms have been identified in the human STING gene that may affect the response to cyclic dinucleotides. To determine the activity of compounds of the invention, THP1-Blue ISG reporter cell lines expressing the different human STING variants have been generated. To do so, the endogenous human STING was first deleted using the CRISPR/CAS9 system: THP1-Blue ISG cells were electroporated with ALL-IN-ONE CRISPR plasmids targeting the STING gene (purchased from Sigma encoding the gRNA and GFP as a reporter gene for successful transduction). GFP positive cells then were sorted 24 h post transfection and expanded. Cells were then dispersed in semisolid methocel medium to allow single cell clone isolations. Clones were then screened for cGAMP responsiveness using the Quanti-blue reporter assay. Non-responsive clones were subsequently analysed for STING loss by western blotting and sequencing of the STING locus.
(§2) For the overexpression of the human STING variants, a confirmed THP1-Blue ISG hSTING KO clone was transduced with individual retroviral plasmids (MSCV-ires-GFP-Blasti) encoding the allelic variants of hSTING (WT, HAQ, R232H, AQ and R293Q), respectively. Transduced cells were sorted for different levels of GFP fluorescence and STING allele expression was analysed by western blot.

hSTING WT = target: T3, hSTING WT (Homo sapiens, UniProt Q86WV6, H232R); test: THP1-Blue ISG hSTING KO reporter cells re-expressing hSTING WT; assay type: cell-based; conditions: WT variant cell line
T3 construct: expressed in transfected cells; host or cells: THP1-Blue ISG hSTING KO clone, retroviral MSCV-ires-GFP-Blasti
Description: as §1, §2

hSTING AQ = target: T4, hSTING AQ (Homo sapiens, UniProt Q86WV6, G230A/H232R/R293Q); test: THP1-Blue ISG hSTING KO reporter cells re-expressing hSTING AQ; assay type: cell-based; conditions: AQ variant cell line
T4 construct: expressed in transfected cells; host or cells: THP1-Blue ISG hSTING KO clone, retroviral MSCV-ires-GFP-Blasti
Description: as §1, §2

hSTING R293Q = target: T5, hSTING R293Q (Homo sapiens, UniProt Q86WV6, H232R/R293Q); test: THP1-Blue ISG hSTING KO reporter cells re-expressing hSTING R293Q; assay type: cell-based; conditions: R293Q variant cell line
T5 construct: expressed in transfected cells; host or cells: THP1-Blue ISG hSTING KO clone, retroviral MSCV-ires-GFP-Blasti
Description: as §1, §2

hSTING R232H = target: T6, hSTING R232H (Homo sapiens, UniProt Q86WV6); test: THP1-Blue ISG hSTING KO reporter cells re-expressing hSTING R232H; assay type: cell-based; conditions: R232H variant cell line
T6 construct: expressed in transfected cells; host or cells: THP1-Blue ISG hSTING KO clone, retroviral MSCV-ires-GFP-Blasti
Description: as §1, §2

[2] = target: Human STING (hSTING, residues 155-341, wild-type sequence) (Homo sapiens, UniProt Q86WV6, H232R); test: hSTING binding by differential scanning fluorimetry (DSF); conditions: 100 μM test compound, 3 μM target protein, at least two Tm measurements averaged
Method: 3) 2 μl of this protein-dye-mixture (25×SYPRO Orange and 15 μM Protein) was added to 8 μl compound solution. Final volume was 10 μL. 4) Certain well positions were used as negative control. 5) The plates were prepared for duplicate measurement and centrifuged for 2 min at 1000 g. 6) In the measurement, 160 cycles of 0.5° C. were used (temperature ramp 15 s/cycle, 15° C. to 95° C.). Data analysis: The dissociation curves were processed in Bio-Rad CFX Manager. Peak type was set to “negative. At least two Tm measurements were averaged.

Sequence of Human STING (hSTING, residues 155-341, wild-type sequence) (Q86WV6 155-341 H232R limits assumed): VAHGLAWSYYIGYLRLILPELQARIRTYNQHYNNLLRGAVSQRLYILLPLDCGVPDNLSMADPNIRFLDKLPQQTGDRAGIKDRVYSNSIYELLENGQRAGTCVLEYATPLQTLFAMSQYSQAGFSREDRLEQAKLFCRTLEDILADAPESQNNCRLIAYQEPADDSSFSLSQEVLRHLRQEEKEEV
T1 sequence (Q86WV6 whole entry R71H/G230A/H232R/R293Q): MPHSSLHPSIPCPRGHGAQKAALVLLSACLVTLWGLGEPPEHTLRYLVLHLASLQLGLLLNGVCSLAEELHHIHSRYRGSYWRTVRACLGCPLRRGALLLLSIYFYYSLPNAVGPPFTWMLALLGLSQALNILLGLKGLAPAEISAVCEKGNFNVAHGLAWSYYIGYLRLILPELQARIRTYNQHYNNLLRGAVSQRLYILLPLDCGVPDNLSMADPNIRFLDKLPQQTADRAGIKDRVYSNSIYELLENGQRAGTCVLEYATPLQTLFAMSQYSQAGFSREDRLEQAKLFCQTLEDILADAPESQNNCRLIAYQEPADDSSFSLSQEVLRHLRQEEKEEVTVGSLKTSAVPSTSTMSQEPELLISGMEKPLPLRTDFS
T4 sequence (Q86WV6 whole entry G230A/H232R/R293Q): as the sequence (Q86WV6 whole entry R71H/G230A/H232R/R293Q) above, with H71R counted along it
T6 sequence (Q86WV6 whole entry, stated change not applied): as the sequence (Q86WV6 whole entry R71H/G230A/H232R/R293Q) above, with H71R, A230G, R232H, Q293R counted along it
T5 sequence (Q86WV6 whole entry H232R/R293Q): as the sequence (Q86WV6 whole entry R71H/G230A/H232R/R293Q) above, with H71R, A230G counted along it
T2 sequence (Q86WV6 whole entry R71H/G230A/H232R/R293Q): as the sequence (Q86WV6 whole entry R71H/G230A/H232R/R293Q) above
T3 sequence (Q86WV6 whole entry H232R): as the sequence (Q86WV6 whole entry R71H/G230A/H232R/R293Q) above, with H71R, A230G, Q293R counted along it

Row | EC50 [1] | EC50 (hSTING HAQ) | EC50 (hSTING WT) | EC50 (hSTING AQ) | EC50 (hSTING R293Q) | EC50 (hSTING R232H) | ΔTm at 100 µM ([2]; read-out: hSTING Tm shift) | hSTING Tm shift [2] | Structure (SMILES)
1 | 250 nM | ≤ 1000 nM | ≤ 1000 nM | ≤ 1000 nM | ≤ 1000 nM | ≤ 1000 nM | 28.8 °C | – | Nc1ncnc2c1ncn2[C@@H]1O[C@]23CO[C@@H]1[C@@H]2OP(=O)(S)OC[C@H]1O[C@@H](n2cnc4cncnc42)[C@H](F)[C@@H]1OP(=O)(S)OC3 (single isomer, unassigned) [Example 1.1, Cyclic (2′-F-2′-deoxynebularine-(3′→5′)-phosphorothioate-LNA-adenosine-(3′→5′)-phosphorothioate)]
2 | 160 nM | – | – | – | – | – | – | 19.8 °C | Nc1ncnc2c1ncn2[C@@H]1O[C@]23CO[C@@H]1[C@@H]2OP(=O)(S)OC[C@H]1O[C@@H](n2cnc4cncnc42)[C@H](F)[C@@H]1OP(=O)(S)OC3 (single isomer, unassigned) [Example 1.2, Cyclic (2′-F-2′-deoxynebularine-(3′→5′)-phosphorothioate-LNA-adenosine-(3′→5′)-phosphorothioate)]
